Data published in PMC9856672, “SGC-CAMKK2-1: A Chemical Probe for CAMKK2” (Cells, 2023).

Experiments:
[1] = target: T1, ABL1(T315I)-nonphosphorylated (Homo sapiens, UniProt P00519, T315I); test: KINOMEscan 1 μM, ABL1(T315I)-nonphosphorylated; assay type: binding; conditions: 1000 nM; Entrez ABL1; read-out: Percent Control
T1 construct: purchased Eurofins DiscoverX KINOMEscan
Source text: (§1) Supplement cells-12-00287-s001.zip/File S2. KinomeScan data for the CAMKK2 probe and negative control.xlsx, sheet "SGC-CAMKK2-1" | column: Percent Control

MAP4K2 = target: T2, MAP4K2 (Homo sapiens, UniProt Q12851); test: KINOMEscan 1 μM, MAP4K2; assay type: binding; conditions: 1000 nM; Entrez MAP4K2; read-out: Percent Control
T2 construct: purchased Eurofins DiscoverX KINOMEscan
Source text: as §1

PYK2 = target: T3, PYK2 (Homo sapiens, UniProt Q14289); test: DiscoverX KINOMEscan binding assay at 1 μM, PYK2; conditions: PYK2 (PTK2B); Compound Concentration 1000 nM; read-out: Percent Control
T3 construct: purchased Eurofins DiscoverX KINOMEscan
Source text: as §1

FGFR1 [2] = target: T4, FGFR1 (Homo sapiens, UniProt P11362); test: KINOMEscan 1 μM, FGFR1; assay type: binding; conditions: 1000 nM; Entrez FGFR1; read-out: Percent Control
T4 construct: purchased Eurofins DiscoverX KINOMEscan
Source text: as §1

ITK [3] = target: T5, ITK (Homo sapiens, UniProt Q08881); test: KINOMEscan 1 μM, ITK; assay type: binding; conditions: 1000 nM; Entrez ITK; read-out: Percent Control
T5 construct: purchased Eurofins DiscoverX KINOMEscan
Source text: as §1

BIKE = target: T6, BIKE (Homo sapiens, UniProt Q9NSY1); test: KINOMEscan 1 μM, BIKE; assay type: binding; conditions: 1000 nM; Entrez BMP2K; read-out: Percent Control
T6 construct: purchased Eurofins DiscoverX KINOMEscan
Source text: as §1

FLT4 = target: T7, FLT4 (Homo sapiens, UniProt P35916); test: KINOMEscan 1 μM, FLT4; assay type: binding; conditions: 1000 nM; Entrez FLT4; read-out: Percent Control
T7 construct: purchased Eurofins DiscoverX KINOMEscan
Source text: as §1

BMX = target: T8, BMX (Homo sapiens, UniProt P51813); test: KINOMEscan 1 μM, BMX; assay type: binding; conditions: 1000 nM; Entrez BMX; read-out: Percent Control
T8 construct: purchased Eurofins DiscoverX KINOMEscan
Source text: as §1

PDPK1 = target: T9, PDPK1 (Homo sapiens, UniProt O15530); test: KINOMEscan 1 μM, PDPK1; assay type: binding; conditions: 1000 nM; Entrez PDPK1; read-out: Percent Control
T9 construct: purchased Eurofins DiscoverX KINOMEscan
Source text: as §1

PIP5K1C = target: T10, PIP5K1C (Homo sapiens, UniProt O60331); test: KINOMEscan 1 μM, PIP5K1C; assay type: binding; conditions: 1000 nM; Entrez PIP5K1C; read-out: Percent Control
T10 construct: purchased Eurofins DiscoverX KINOMEscan
Source text: as §1

STK39 = target: T11, STK39 (Homo sapiens, UniProt Q9UEW8); test: KINOMEscan 1 μM, STK39; assay type: binding; conditions: 1000 nM; Entrez STK39; read-out: Percent Control
T11 construct: purchased Eurofins DiscoverX KINOMEscan
Source text: as §1

TNNI3K = target: T12, TNNI3K (Homo sapiens, UniProt Q59H18); test: DiscoverX KINOMEscan binding assay at 1 μM, TNNI3K; conditions: Compound Concentration 1000 nM, read-out: Percent Control
T12 construct: purchased Eurofins DiscoverX KINOMEscan
Source text: as §1

p38-beta = target: T13, p38-beta (Homo sapiens, UniProt Q15759); test: KINOMEscan 1 μM, p38-beta; assay type: binding; conditions: 1000 nM; Entrez MAPK11; read-out: Percent Control
T13 construct: purchased Eurofins DiscoverX KINOMEscan
Source text: as §1

[4] = target: T14, JAK1(JH2domain-pseudokinase) (Homo sapiens, UniProt P23458); test: KINOMEscan 1 μM, JAK1(JH2domain-pseudokinase); assay type: binding; conditions: 1000 nM; Entrez JAK1; read-out: Percent Control
T14 construct: JAK1(JH2domain-pseudokinase); purchased Eurofins DiscoverX KINOMEscan
Source text: as §1

PIM3 = target: T15, PIM3 (Homo sapiens, UniProt Q86V86); test: KINOMEscan at 1 μM, PIM3; assay type: binding; conditions: 1000 nM, read-out: Percent Control
T15 construct: purchased Eurofins DiscoverX KINOMEscan
Source text: (§2) Supplement cells-12-00287-s001.zip/File S2. KinomeScan data for the CAMKK2 probe and negative control.xlsx, sheet "SGC-CAMKK2-1N" | column: Percent Control

FGFR1 [5] = target: T4, FGFR1; test: KINOMEscan binding assay at 1 μM, FGFR1; conditions: Compound Concentration 1000 nM; read-out: Percent Control
Source text: as §2

PIKFYVE = target: T16, PIKFYVE (Homo sapiens, UniProt Q9Y2I7); test: KINOMEscan at 1 μM, PIKFYVE; assay type: binding; conditions: 1000 nM, read-out: Percent Control
T16 construct: purchased Eurofins DiscoverX KINOMEscan
Source text: as §2

EPHB2 = target: T17, EPHB2 (Homo sapiens, UniProt P29323); test: KINOMEscan binding assay at 1 μM, EPHB2; conditions: Compound Concentration 1000 nM; read-out: Percent Control
T17 construct: purchased Eurofins DiscoverX KINOMEscan
Source text: as §2

HPK1 = target: T18, HPK1 (Homo sapiens, UniProt Q92918); test: KINOMEscan binding assay at 1 μM, HPK1; conditions: Compound Concentration 1000 nM; read-out: Percent Control
T18 construct: purchased Eurofins DiscoverX KINOMEscan
Source text: as §2

EPHA2 = target: T19, EPHA2 (Homo sapiens, UniProt P29317); test: KINOMEscan at 1 μM, EPHA2; assay type: binding; conditions: 1000 nM, read-out: Percent Control
T19 construct: purchased Eurofins DiscoverX KINOMEscan
Source text: as §2

HCK = target: T20, HCK (Homo sapiens, UniProt P08631); test: KINOMEscan binding assay at 1 μM, HCK; conditions: Compound Concentration 1000 nM; read-out: Percent Control
T20 construct: purchased Eurofins DiscoverX KINOMEscan
Source text: as §2

PRKG1 = target: T21, PRKG1 (Homo sapiens, UniProt Q13976); test: KINOMEscan binding assay at 1 μM, PRKG1; conditions: Compound Concentration 1000 nM; read-out: Percent Control
T21 construct: purchased Eurofins DiscoverX KINOMEscan
Source text: as §2

MUSK = target: T22, MUSK (Homo sapiens, UniProt O15146); test: KINOMEscan binding assay at 1 μM, MUSK; conditions: Compound Concentration 1000 nM; read-out: Percent Control
T22 construct: purchased Eurofins DiscoverX KINOMEscan
Source text: as §2

NEK10 = target: T23, NEK10 (Homo sapiens, UniProt Q6ZWH5); test: KINOMEscan at 1 μM, NEK10; assay type: binding; conditions: 1000 nM, read-out: Percent Control
T23 construct: purchased Eurofins DiscoverX KINOMEscan
Source text: as §2

LOK = target: T24, LOK (Homo sapiens, UniProt O94804); test: KINOMEscan binding assay at 1 μM, LOK; conditions: Compound Concentration 1000 nM; read-out: Percent Control
T24 construct: purchased Eurofins DiscoverX KINOMEscan
Source text: as §2

[6] = target: T25, ABL1(M351T)-phosphorylated (Homo sapiens, UniProt P00519, M351T); test: KINOMEscan at 1 μM, ABL1(M351T)-phosphorylated; assay type: binding; conditions: 1000 nM, read-out: Percent Control
T25 construct: purchased Eurofins DiscoverX KINOMEscan
Source text: as §2

MAP3K15 = target: T26, MAP3K15 (Homo sapiens, UniProt Q6ZN16); test: KINOMEscan binding assay at 1 μM, MAP3K15; conditions: Compound Concentration 1000 nM; read-out: Percent Control
T26 construct: purchased Eurofins DiscoverX KINOMEscan
Source text: as §2

CASK = target: T27, CASK (Homo sapiens, UniProt O14936); test: KINOMEscan at 1 μM, CASK; assay type: binding; conditions: 1000 nM, read-out: Percent Control
T27 construct: purchased Eurofins DiscoverX KINOMEscan
Source text: as §2

ITK [7] = target: T5, ITK; test: KINOMEscan binding assay at 1 μM, ITK; conditions: Compound Concentration 1000 nM; read-out: Percent Control
Source text: as §2

HIPK3 = target: T28, HIPK3 (Homo sapiens, UniProt Q9H422); test: KINOMEscan at 1 μM, HIPK3; assay type: binding; conditions: 1000 nM, read-out: Percent Control
T28 construct: purchased Eurofins DiscoverX KINOMEscan
Source text: as §2

PRKD3 = target: T29, PRKD3 (Homo sapiens, UniProt O94806); test: KINOMEscan at 1 μM, PRKD3; assay type: binding; conditions: 1000 nM, read-out: Percent Control
T29 construct: purchased Eurofins DiscoverX KINOMEscan
Source text: as §2

ACVR2A = target: T30, ACVR2A (Homo sapiens, UniProt P27037); test: KINOMEscan at 1 μM, ACVR2A; assay type: binding; conditions: 1000 nM, read-out: Percent Control
T30 construct: purchased Eurofins DiscoverX KINOMEscan
Source text: as §2

MARK1 = target: T31, MARK1 (Homo sapiens, UniProt Q9P0L2); test: KINOMEscan at 1 μM, MARK1; assay type: binding; conditions: 1000 nM, read-out: Percent Control
T31 construct: purchased Eurofins DiscoverX KINOMEscan
Source text: as §2

RIOK3 = target: T32, RIOK3 (Homo sapiens, UniProt O14730); test: KINOMEscan at 1 μM, RIOK3; assay type: binding; conditions: 1000 nM, read-out: Percent Control
T32 construct: purchased Eurofins DiscoverX KINOMEscan
Source text: as §2

SBK1 = target: T33, SBK1 (Homo sapiens, UniProt Q52WX2); test: KINOMEscan at 1 μM, SBK1; assay type: binding; conditions: 1000 nM, read-out: Percent Control
T33 construct: purchased Eurofins DiscoverX KINOMEscan
Source text: as §2

T5 sequence (Q08881 whole entry): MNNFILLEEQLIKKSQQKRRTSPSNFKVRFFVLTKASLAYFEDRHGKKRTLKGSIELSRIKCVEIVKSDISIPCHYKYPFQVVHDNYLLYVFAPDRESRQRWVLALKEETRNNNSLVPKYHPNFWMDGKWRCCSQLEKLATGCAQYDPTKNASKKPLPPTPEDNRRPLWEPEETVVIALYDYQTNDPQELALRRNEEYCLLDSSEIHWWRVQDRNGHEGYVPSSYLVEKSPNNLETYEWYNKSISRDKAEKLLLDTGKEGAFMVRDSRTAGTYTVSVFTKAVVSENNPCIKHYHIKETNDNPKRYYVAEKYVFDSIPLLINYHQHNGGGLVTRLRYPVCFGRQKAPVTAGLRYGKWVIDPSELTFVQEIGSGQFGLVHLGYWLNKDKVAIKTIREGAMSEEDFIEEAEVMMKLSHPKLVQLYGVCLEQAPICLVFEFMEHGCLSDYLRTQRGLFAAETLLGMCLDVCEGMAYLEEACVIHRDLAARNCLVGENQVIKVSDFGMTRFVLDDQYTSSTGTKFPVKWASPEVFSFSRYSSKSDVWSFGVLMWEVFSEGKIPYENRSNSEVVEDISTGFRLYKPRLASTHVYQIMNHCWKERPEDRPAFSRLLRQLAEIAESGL
T4 sequence (P11362 22-822): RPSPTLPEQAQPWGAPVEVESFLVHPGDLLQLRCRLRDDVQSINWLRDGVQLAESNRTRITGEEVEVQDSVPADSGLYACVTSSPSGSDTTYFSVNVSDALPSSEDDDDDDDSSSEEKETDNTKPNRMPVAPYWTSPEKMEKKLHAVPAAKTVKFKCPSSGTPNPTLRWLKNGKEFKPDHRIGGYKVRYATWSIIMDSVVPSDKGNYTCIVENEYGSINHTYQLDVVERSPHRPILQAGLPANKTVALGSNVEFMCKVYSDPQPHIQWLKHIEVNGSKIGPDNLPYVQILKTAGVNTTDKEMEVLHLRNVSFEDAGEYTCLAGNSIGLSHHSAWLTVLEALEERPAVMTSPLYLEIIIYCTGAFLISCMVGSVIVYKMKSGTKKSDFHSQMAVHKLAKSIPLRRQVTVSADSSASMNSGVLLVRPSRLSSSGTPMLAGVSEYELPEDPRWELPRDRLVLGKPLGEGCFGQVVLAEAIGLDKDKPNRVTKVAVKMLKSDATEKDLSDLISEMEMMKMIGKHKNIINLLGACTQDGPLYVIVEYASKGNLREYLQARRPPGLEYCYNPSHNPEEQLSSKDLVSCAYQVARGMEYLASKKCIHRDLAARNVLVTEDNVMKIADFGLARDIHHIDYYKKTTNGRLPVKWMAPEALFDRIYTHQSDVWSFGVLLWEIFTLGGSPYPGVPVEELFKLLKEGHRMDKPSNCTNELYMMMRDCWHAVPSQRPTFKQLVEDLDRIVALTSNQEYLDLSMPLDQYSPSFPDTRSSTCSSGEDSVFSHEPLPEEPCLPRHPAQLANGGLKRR
T24 sequence (O94804 whole entry): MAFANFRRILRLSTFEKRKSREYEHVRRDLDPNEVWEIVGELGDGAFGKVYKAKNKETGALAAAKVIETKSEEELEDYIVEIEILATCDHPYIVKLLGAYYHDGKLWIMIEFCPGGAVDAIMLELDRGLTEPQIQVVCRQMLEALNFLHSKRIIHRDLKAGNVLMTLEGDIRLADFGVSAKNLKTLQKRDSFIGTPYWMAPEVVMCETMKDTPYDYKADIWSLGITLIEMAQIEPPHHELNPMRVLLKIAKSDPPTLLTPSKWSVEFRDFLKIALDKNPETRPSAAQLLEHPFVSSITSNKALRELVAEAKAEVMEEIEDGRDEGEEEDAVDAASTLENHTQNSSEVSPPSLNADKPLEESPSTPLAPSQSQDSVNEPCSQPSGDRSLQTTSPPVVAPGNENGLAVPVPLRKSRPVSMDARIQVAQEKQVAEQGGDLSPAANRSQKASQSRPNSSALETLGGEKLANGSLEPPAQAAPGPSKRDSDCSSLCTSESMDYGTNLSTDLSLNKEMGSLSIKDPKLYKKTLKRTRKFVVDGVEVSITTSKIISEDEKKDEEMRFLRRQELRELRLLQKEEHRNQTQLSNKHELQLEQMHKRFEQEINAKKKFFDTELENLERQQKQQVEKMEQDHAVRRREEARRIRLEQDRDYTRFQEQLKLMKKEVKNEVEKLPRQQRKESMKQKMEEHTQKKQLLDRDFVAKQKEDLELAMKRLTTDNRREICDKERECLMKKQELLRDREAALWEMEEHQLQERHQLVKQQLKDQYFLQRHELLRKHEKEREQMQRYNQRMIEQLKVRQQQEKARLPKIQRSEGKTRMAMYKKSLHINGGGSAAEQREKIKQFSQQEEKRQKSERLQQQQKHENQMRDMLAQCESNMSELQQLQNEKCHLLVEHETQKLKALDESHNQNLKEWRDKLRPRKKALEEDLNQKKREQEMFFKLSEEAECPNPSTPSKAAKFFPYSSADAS
T20 sequence (P08631 whole entry): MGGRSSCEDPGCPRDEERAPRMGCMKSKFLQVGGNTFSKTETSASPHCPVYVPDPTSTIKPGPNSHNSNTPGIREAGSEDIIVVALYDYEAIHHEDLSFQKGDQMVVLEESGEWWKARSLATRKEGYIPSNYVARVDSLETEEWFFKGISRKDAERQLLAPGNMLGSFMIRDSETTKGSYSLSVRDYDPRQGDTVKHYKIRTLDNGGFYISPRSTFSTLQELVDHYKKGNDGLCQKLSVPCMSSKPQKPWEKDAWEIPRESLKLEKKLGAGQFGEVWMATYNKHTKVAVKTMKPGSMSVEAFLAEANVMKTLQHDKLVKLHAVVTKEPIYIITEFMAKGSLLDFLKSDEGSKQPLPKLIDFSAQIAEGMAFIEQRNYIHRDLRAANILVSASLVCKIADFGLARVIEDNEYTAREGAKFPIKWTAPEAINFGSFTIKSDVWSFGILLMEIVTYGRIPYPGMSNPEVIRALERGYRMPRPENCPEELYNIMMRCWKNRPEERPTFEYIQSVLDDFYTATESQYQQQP
T26 sequence (Q6ZN16 whole entry): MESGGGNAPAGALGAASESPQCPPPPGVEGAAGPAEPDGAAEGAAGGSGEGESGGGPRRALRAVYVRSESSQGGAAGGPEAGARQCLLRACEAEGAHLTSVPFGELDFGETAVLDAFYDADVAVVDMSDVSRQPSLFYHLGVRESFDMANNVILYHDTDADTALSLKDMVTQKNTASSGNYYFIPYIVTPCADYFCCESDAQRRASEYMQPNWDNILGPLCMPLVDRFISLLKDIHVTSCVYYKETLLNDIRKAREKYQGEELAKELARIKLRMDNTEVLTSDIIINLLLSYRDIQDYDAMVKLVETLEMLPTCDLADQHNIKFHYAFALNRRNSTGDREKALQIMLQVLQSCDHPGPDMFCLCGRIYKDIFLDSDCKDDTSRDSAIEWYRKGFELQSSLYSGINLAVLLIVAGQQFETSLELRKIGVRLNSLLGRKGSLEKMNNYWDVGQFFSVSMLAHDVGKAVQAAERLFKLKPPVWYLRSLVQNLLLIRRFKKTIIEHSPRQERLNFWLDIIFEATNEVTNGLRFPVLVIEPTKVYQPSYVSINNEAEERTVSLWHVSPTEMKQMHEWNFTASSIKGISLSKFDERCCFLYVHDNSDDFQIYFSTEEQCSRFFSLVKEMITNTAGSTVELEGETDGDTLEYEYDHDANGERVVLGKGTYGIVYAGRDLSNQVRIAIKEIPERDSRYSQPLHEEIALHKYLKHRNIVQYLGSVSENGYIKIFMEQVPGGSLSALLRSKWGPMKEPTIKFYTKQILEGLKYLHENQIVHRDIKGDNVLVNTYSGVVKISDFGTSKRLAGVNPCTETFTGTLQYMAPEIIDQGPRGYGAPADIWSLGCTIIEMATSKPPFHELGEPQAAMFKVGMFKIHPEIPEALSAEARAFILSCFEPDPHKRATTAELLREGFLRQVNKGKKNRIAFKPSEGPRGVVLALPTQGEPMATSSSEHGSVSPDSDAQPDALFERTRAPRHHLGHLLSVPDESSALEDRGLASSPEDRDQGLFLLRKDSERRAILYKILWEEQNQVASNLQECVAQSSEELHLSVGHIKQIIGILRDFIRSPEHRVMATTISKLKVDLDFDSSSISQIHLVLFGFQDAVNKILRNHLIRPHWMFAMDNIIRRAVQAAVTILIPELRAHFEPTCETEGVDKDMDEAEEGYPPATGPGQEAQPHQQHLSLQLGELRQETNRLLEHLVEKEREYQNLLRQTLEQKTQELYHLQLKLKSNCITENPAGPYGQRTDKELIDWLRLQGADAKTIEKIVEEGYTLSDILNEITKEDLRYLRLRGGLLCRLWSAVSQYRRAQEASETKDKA
T9 sequence (O15530 whole entry): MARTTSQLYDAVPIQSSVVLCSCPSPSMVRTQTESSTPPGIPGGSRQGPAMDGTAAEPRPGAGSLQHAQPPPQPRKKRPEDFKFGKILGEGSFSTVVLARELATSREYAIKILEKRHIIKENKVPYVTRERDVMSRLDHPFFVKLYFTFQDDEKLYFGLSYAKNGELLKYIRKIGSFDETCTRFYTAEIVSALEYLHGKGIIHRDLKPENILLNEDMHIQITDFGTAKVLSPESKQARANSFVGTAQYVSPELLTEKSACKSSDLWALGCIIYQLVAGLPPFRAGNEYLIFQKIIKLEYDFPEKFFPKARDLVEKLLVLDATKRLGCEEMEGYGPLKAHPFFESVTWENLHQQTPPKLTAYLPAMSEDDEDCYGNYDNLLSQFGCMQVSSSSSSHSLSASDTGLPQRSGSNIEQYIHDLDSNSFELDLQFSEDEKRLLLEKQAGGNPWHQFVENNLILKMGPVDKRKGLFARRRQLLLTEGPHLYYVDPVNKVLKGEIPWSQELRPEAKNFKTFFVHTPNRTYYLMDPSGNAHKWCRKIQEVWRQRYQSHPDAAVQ
T14 sequence (P23458 583-855 limits assumed): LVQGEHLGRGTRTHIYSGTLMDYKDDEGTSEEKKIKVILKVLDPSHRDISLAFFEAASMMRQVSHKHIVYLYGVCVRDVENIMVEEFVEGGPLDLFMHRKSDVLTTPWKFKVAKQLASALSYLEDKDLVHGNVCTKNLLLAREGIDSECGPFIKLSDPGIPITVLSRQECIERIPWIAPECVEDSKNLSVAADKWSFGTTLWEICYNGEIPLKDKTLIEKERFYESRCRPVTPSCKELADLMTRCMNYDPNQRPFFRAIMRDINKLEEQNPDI

Cc1cccc(-c2cnc3occ(-c4ccc(C(=O)O)c(C5CCCC5)c4)c3c2)c1 [SGC-CAMKK2-1 (YL-36)]
remaining binding at 1 µM [1]: 100%
remaining binding at 1 µM (MAP4K2): 100%
remaining binding at 1 µM (PYK2): 100%
remaining binding at 1 µM (FGFR1 [2]): 100%
remaining binding at 1 µM (ITK [3]): 100%
remaining binding at 1 µM (BIKE): 100%
remaining binding at 1 µM (FLT4): 96%
remaining binding at 1 µM (BMX): 100%
remaining binding at 1 µM (PDPK1): 95%
remaining binding at 1 µM (PIP5K1C): 99%
remaining binding at 1 µM (STK39): 64%
remaining binding at 1 µM (TNNI3K): 100%
remaining binding at 1 µM (p38-beta): 100%
remaining binding at 1 µM [4]: 90%

O=C(O)c1ccc(-c2coc3ncc(-c4ccccc4)cc23)cc1Cl [SGC-CAMKK2-1N (UNC-YL-83)]
remaining binding at 1 µM (PIM3): 66%
remaining binding at 1 µM (FGFR1 [5]): 100%
remaining binding at 1 µM (PIKFYVE): 84%
remaining binding at 1 µM (EPHB2): 100%
remaining binding at 1 µM (HPK1): 100%
remaining binding at 1 µM (EPHA2): 76%
remaining binding at 1 µM (HCK): 100%
remaining binding at 1 µM (PRKG1): 100%
remaining binding at 1 µM (MUSK): 100%
remaining binding at 1 µM (NEK10): 82%
remaining binding at 1 µM (LOK): 100%
remaining binding at 1 µM [6]: 68%
remaining binding at 1 µM (MAP3K15): 100%
remaining binding at 1 µM (CASK): 81%
remaining binding at 1 µM (ITK [7]): 100%
remaining binding at 1 µM (HIPK3): 40%
remaining binding at 1 µM (PRKD3): 93%
remaining binding at 1 µM (ACVR2A): 72%
remaining binding at 1 µM (MARK1): 97%
remaining binding at 1 µM (RIOK3): 76%
remaining binding at 1 µM (SBK1): 67%
